Consider eight compounds from US20080026417A1, “ASSAYS FOR TRICHOMONAL AND OTHER HYDROLASES” (priority 2002, published 2008).

The subject of series [1] is trichomonal hydrolases. The series is described as follows: Experiment 9: dipeptide inhibition of trichomonal hydrolases mixed with vaginal fluid supernatant. The settings on record: trichomonal hydrolase added, ZRR-MNA, 10 mM dipeptide in substrate solution. The arrangement: key: 0: Yellow; 1: Peach; 2: Orange; 3: Light to medium pink; 4: Dark pink or red; 5: Fuchsia; 6: Purple. Format: biochemical, Trichomonas vaginalis. Here is the method: (§1) For each specimen, the vaginal fluid was extracted from the swab by centrifugation, 2 μL of the vaginal fluid supernatant was removed from the microfuge tube, and the remainder of the fluid was mixed to resuspend the particulate matter. For each specimen, 2 μL of the thus reconstituted vaginal fluid was pipetted into each of four microwells, then 2 μL of one of the four substrate/dipeptide combinations was added to each well. The 2 μL of vaginal fluid supernatant from each specimen was mixed with 18 μL of trichomonal hydrolases, and 2 μL of this mixture was mixed with 2 μL of each of the substrate/dipeptide combinations in another set of four wells. After fifteen minutes, 2 μL of indicator solution was added to each well.

In series [2] the test system is non-trichomonal hydrolases present in whole vaginal fluid. The series is described as follows: Experiment 9: dipeptide inhibition of hydrolases in whole vaginal fluid of uninfected women. The series is classed as biochemical, human. The settings on record: ZRR-MNA, 10 mM dipeptide in substrate solution. The arrangement: key: 0: Yellow; 1: Peach; 2: Orange; 3: Light to medium pink; 4: Dark pink or red; 5: Fuchsia; 6: Purple. Here is the method: as §1

Series [3] relates to trichomonal hydrolases. The series is described as follows: Experiment 13: hydrolysis of peptide substrates by trichomonal hydrolases at low pH in vaginal fluid supernatant. The series is classed as biochemical, Trichomonas vaginalis. The arrangement: key: −: No red color produced; +: Clearly visible red color produced; ++: Moderately intense red color produced; +++: Very intense red color produced. The settings on record: Fast Garnet. Here is the method:
(§2) Forty μL of each substrate was pipetted into duplicate wells of a microtiter plate. The plate was covered with tape, placed into a 25° C. incubator, and allowed to warm. A diluted enzyme mixture was prepared by mixing one part (v/v) freshly-thawed trichomonal hydrolase solution to nine parts 2 mM L-cysteine solution. Forty μL of this mixture was added to one well of each pair of duplicate wells. For negative controls, 40 μL of 2 mM L-cysteine was added to the second well in each pair of duplicate wells. The plate was returned to the incubator and incubated for ten minutes. Forty μL of SDS/acetate solution was added to each well, followed by 40 μL of Fast Garnet solution. The intensity of color that developed in each well after five minutes was visually scored using the color scale presented in Table 13.1.
Of the nine substrates hydrolyzed by trichomonal hydrolases to produce an intense pink color (scoring ++ or +++) in the absence of vaginal fluid supernatant, only four produced intense pink color when vaginal fluid supernatant was present.

Series [4] deals with trichomonal hydrolases. The series is described as follows: Experiment 13: hydrolysis of peptide substrates by trichomonal hydrolases at low pH, no vaginal fluid. The series is classed as biochemical, Trichomonas vaginalis. The arrangement: key: −: No red color produced; +: Clearly visible red color produced; ++: Moderately intense red color produced; +++: Very intense red color produced. Conditions: without vaginal fluid; threonine buffer pH 2.4; 2 mM substrate solution; 10 min 25° C.; Fast Garnet. Here is the method:
as §2

Series [5] has as its system trichomonal hydrolases. The series is described as follows: Experiment 12: hydrolysis of ZRRR-MNA by trichomonal hydrolases in four buffers. Conditions: for Score: substrate ZRRR-MNA, Fast Red RL, 0-9 scale. The series is classed as biochemical, Trichomonas vaginalis. Here is the method: Fifty μL of each buffer solution, at pH 2.0, 2.2, 2.4, or 2.6, was pipetted into separate wells of a microtiter plate. Twenty-five μL of 8 mM ZRRR-MNA and 25 μL of 10% trichomonal hydrolase solution were added to each well, and 20 μL were then removed from each well for measurement of final pH. Ten minutes after the mixtures were made, a Dacron swab was inserted into each well to absorb the liquid, then each swab was rubbed on a Fast Red RL film. The intensity of pink color that developed on each swab after five minutes was visually scored in 0.5 unit increments using the 0-9 color scale presented in Table 11.1 of the preceding example.

The mark [6] stands for this setting: Donor A vaginal fluid supernatant.
Where [7] appears, read: Donor B vaginal fluid supernatant.
Where [8] appears, read: Donor C vaginal fluid supernatant.
[9] abbreviates: Donor D vaginal fluid supernatant.

Consider Lysine-lysine, for which the “Hydrolase activity color score with dipeptide” value (shortened to “Hydrolase activity color score”) in the series on trichomonal hydrolases [1] (setting [6]) came out at 1; in the series with trichomonal hydrolases [1] (setting [7]), 2; with trichomonal hydrolases [1] (setting [8]), 1; in the series on trichomonal hydrolases [1] (setting [9]) it was 2; in series [2] (Donor A whole vaginal fluid) it was 1; in series [2] (Donor B whole vaginal fluid) it was 0. The “Hydrolase activity color score” value in series [2] (Donor C whole vaginal fluid) was 0; in series [2] (Donor D whole vaginal fluid) it was 2.5.

Take Lysine-proline: the “Hydrolase activity color score” value with trichomonal hydrolases [1] (setting [6]) worked out at 1; in the series on trichomonal hydrolases [1] (setting [7]) it was 1; with trichomonal hydrolases [1] (setting [8]), 0.5; with trichomonal hydrolases [1] (setting [9]), 2; in series [2] (Donor A whole vaginal fluid), 0; in series [2] (Donor B whole vaginal fluid) it was 0. Further, the “Hydrolase activity color score” value in series [2] (Donor C whole vaginal fluid) and in series [2] (Donor D whole vaginal fluid) was 0 in each case.

With Lysine-valine, the “Hydrolase activity color score” value with trichomonal hydrolases [1] (setting [6]) is listed as 1; in the series on trichomonal hydrolases [1] (setting [7]), 2; with trichomonal hydrolases [1] (setting [8]), 1; with trichomonal hydrolases [1] (setting [9]), 2; in series [2] (Donor A whole vaginal fluid), 1; in series [2] (Donor B whole vaginal fluid), 0. The figures for the “Hydrolase activity color score” value in series [2] (Donor C whole vaginal fluid) and in series [2] (Donor D whole vaginal fluid) were 0 and 1.5, respectively.

Take `COc1cc(NC(=O)[C@H](CCCNC(=N)N)NC(=O)[C@H](Cc2ccccc2)NC(=O)OCc2ccccc2)cc2ccccc12` [CBZ-Phe-Arg-MNA]: the “Color Score” value was “+” in the series with trichomonal hydrolases [3] and “++” in the series on trichomonal hydrolases [4].

With `COc1cc(NC(=O)[C@H](CCCN=C(N)N)NC(=O)[C@H](CCCN=C(N)N)NC(=O)[C@H](C)NC(=O)OCc2ccccc2)cc2ccccc12` [CBZ-Ala-Arg-Arg-MNA], the entries for the “Color Score” value in the series on trichomonal hydrolases [3] and with trichomonal hydrolases [4] were “+” and “++”, respectively.

Turning to `COc1cc(NC(=O)[C@H](CCCNC(=N)N)NC(=O)[C@@H](NC(=O)[C@H](Cc2ccccc2)NC(=O)c2ccccc2)C(C)C)cc2ccccc12` [BZ-Phe-Val-Arg-MNA], the results for the “Color Score” value with trichomonal hydrolases [3] and with trichomonal hydrolases [4] were “+” and “++”, respectively.

As for `NCCCC[C@H](N)C(=O)O` [L-lysine], the Score came to 3.0 in the series on trichomonal hydrolases [5] (pH 2.0 Buffer (100 mM)), 4.5 with trichomonal hydrolases [5] (pH 2.2 Buffer (100 mM)), 5.0 in the series with trichomonal hydrolases [5] (pH 2.4 Buffer (100 mM)) and 5.5 with trichomonal hydrolases [5] (pH 2.6 Buffer (100 mM)). The “Final pH” value is reported as “pH 2.3” in the series on trichomonal hydrolases [5] (pH 2.0 Buffer after mixing with substrate and trichomonal hydrolase solution); “pH 2.5” in the series on trichomonal hydrolases [5] (pH 2.2 Buffer after mixing with substrate and trichomonal hydrolase solution); “pH 2.9” in the series on trichomonal hydrolases [5] (pH 2.4 Buffer after mixing with substrate and trichomonal hydrolase solution); “pH 3.0” in the series on trichomonal hydrolases [5] (pH 2.6 Buffer after mixing with substrate and trichomonal hydrolase solution).

Regarding `COc1cc(NC(=O)[C@H](CCCN=C(N)N)NC(=O)[C@H](CC(C)C)NC(=O)OCc2ccccc2)cc2ccccc12` [ZLR, CBZ-Leu-Arg-MNA], the “Color Score” value in the series on trichomonal hydrolases [3] and in the series with trichomonal hydrolases [4] was “+++” each time.
